Reference: patent US20210221774A1, “TREATMENT OF POST-TRAUMATIC SYNDROME DISORDER” (Aché Laboratórios Farmacêuticos S.A, priority 2017, published 2021)

System: c-fos expression in key brain regions involved in stress response
Test: Single Prolonged Stress (SPS) model, count of c-fos positive neurons in brain regions
Format: in vivo
Details: mice, IA1-29 30 mg/kg p.o. given before SPS, locus ceruleus, amygdala, hypothalamus, bed nuclei stria terminalis (FIG. 1)
Method: The quinazolinone of the invention was named IA1-29 and was tested in an in vivo model that mimics the activation that occurs in the brain after a prolonged stress stimulus.
The effects of the administration of IA1-29 at 30 mg/kg p.o. in brain activation were assessed in mice subjected to the Single Prolonged Stress (SPS) model. The SPS protocol is a well established model of PTSD that combines multiple stressors (physical restraint, forced swim, predator scent and ether anesthesia (Borghans & Homberg, 2015; Yamamoto et al., 2009)). The activation of specific brain regions was determined by counting the number of neurons expressing the c-fos protein, an immediate early gene product that can be used as a marker of cell activation in individual neurons. […] The count of c-fos positive neurons in some of these regions can be visualized in FIG. 1. The experiment comprised three different groups (n=10 per group): mice not subjected to the SPS protocol (Sham), mice subjected to the SPS model (SPS) and animals submitted to the SPS protocol but pre-treated with IA1-29 at 30 mg/kg (IA1-29+SPS). The brain regions exemplified in FIG. 1 are locus ceruleus (FIG. 1A), amygdala (FIG. 1B), hypothalamus (FIG. 1C) and bed nuclei stria terminalis (FIG. 1D). […]

COc1ccccc1N1CCN(CCn2cnc3ccccc3c2=O)CC1 [IA1-29, 3-(2-(4-(2-methoxyphenyl)piperazine-1-yl)ethyl) quinazoline-4(3H)-one]
SPS-induced c-fos expression in key brain regions involved in stress response (count of c-fos positive neurons): suppressed
